PubChem BioAssay AID1963836 (Molecular Pharmacology Branch, DTP, NCI, 2024)

System: 857933-349-R-J2-PDC complex spheroid viability
Test: Anticancer human tumor 857933-349-R-J2-PDC patient-derived colon adenocarcinoma cell line growth inhibition [POLQ]
Details: for IC50: curve of first compound; for viability, T/C: stronger effect = lower value
Summary of the method: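 Patient-derived tumour cells were co-cultured with HUVEC and mesenchymal stem cells as multicellular spheroids at 37 °C. They were treated with POLQ inhibitors (novobiocin, ART-558, RP6685) alone or combined with other agents. Top concentrations were at or near clinical Cmax (otherwise 10 microM; SN-38 at 1 microM), decreasing in half-log steps.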

[1] = second compound 0.0316 µM, first compound 0.0316 µM
[2] = second compound 0.0316 µM, first compound 0.1 µM
[3] = second compound 0.0316 µM, first compound 0.316 µM
[4] = second compound 0.0316 µM, first compound 1 µM
[5] = second compound 0.0316 µM, first compound 3.16 µM
[6] = second compound 0.0316 µM, first compound 10 µM
[7] = second compound 0.1 µM, first compound 0.0316 µM
[8] = second compound 0.1 µM, first compound 0.1 µM
[9] = second compound 0.1 µM, first compound 0.316 µM
[10] = second compound 0.1 µM, first compound 1 µM
[11] = second compound 0.1 µM, first compound 3.16 µM
[12] = second compound 0.1 µM, first compound 10 µM
[13] = second compound 0.316 µM, first compound 0.0316 µM
[14] = second compound 0.316 µM, first compound 0.1 µM
[15] = second compound 0.316 µM, first compound 0.316 µM
[16] = second compound 0.316 µM, first compound 1 µM
[17] = second compound 0.316 µM, first compound 3.16 µM
[18] = second compound 0.316 µM, first compound 10 µM
[19] = second compound 1 µM, first compound 0.0316 µM
[20] = second compound 1 µM, first compound 0.1 µM
[21] = second compound 1 µM, first compound 0.316 µM
[22] = second compound 1 µM, first compound 1 µM
[23] = second compound 1 µM, first compound 3.16 µM
[24] = second compound 1 µM, first compound 10 µM
[25] = second compound 3.16 µM, first compound 0.0316 µM
[26] = second compound 3.16 µM, first compound 0.1 µM
[27] = second compound 3.16 µM, first compound 0.316 µM
[28] = second compound 3.16 µM, first compound 1 µM
[29] = second compound 3.16 µM, first compound 3.16 µM
[30] = second compound 3.16 µM, first compound 10 µM
[31] = second compound 10 µM, first compound 0.0316 µM
[32] = second compound 10 µM, first compound 0.1 µM
[33] = second compound 10 µM, first compound 0.316 µM
[34] = second compound 10 µM, first compound 1 µM
[35] = second compound 10 µM, first compound 3.16 µM
[36] = second compound 10 µM, first compound 10 µM
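Further: spheroids exposed to compounds for seven days before readout.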

For `Nc1ccn(C2OC(CO)C(O)C2(F)F)c(=O)n1` (stereo unspecified) + COC1C(OC(N)=O)C(O)C(Oc2ccc3c(O)c(NC(=O)c4ccc(O)c(CC=C(C)C)c4)c(=O)oc3c2C)OC1(C)C, the IC50 (second compound 0.0316 µM) was 0.159 µM, the IC50 (second compound 0.1 µM) was 0.152 µM and the IC50 (second compound 0.316 µM) was 0.148 µM. The IC50 (second compound 1 µM) was 0.164 µM, the IC50 (second compound 3.16 µM) was 0.138 µM and the IC50 (second compound 10 µM) was 0.162 µM. It also gave a viability, T/C [1] of 68.6%, a viability, T/C [2] of 63.7% and a viability, T/C [3] of 30.3%. It also gave a viability, T/C [4] of 17.6%, a viability, T/C [5] of 12.9% and a viability, T/C [6] of 11.4%. For the same molecule, the viability, T/C [7] was 91.6%, the viability, T/C [8] was 63.3% and the viability, T/C [9] was 26.3%. The viability, T/C [10] was 17.3%, the viability, T/C [11] was 11.3% and the viability, T/C [12] was 11.4%. The viability, T/C [13] was 67.3%, the viability, T/C [14] was 64.5% and the viability, T/C [15] was 22.4%. For the same molecule, the viability, T/C [16] was 16.8%, the viability, T/C [17] was 13.5% and the viability, T/C [18] was 10.9%. For the same molecule, the viability, T/C [19] was 74.1%, the viability, T/C [20] was 68.5% and the viability, T/C [21] was 25.5%. It also gave a viability, T/C [22] of 19.6%, a viability, T/C [23] of 14.5% and a viability, T/C [24] of 7.53%. For the same molecule, the viability, T/C [25] was 82.1%, the viability, T/C [26] was 59.4% and the viability, T/C [27] was 25.8%. It also gave a viability, T/C [28] of 16.8%, a viability, T/C [29] of 12.8% and a viability, T/C [30] of 11.8%. For the same molecule, the viability, T/C [31] was 77.7%, the viability, T/C [32] was 65.6% and the viability, T/C [33] was 28.2%. It also gave a viability, T/C [34] of 14.9%, a viability, T/C [35] of 16.3% and a viability, T/C [36] of 11.8%.

`COc1ccc([C@@H](O)c2cc(-c3ncnc4cc(N5CCOCC5)ccc34)c(F)cc2Cl)nn1` + COC1C(OC(N)=O)C(O)C(Oc2ccc3c(O)c(NC(=O)c4ccc(O)c(CC=C(C)C)c4)c(=O)oc3c2C)OC1(C)C gave an IC50 (second compound 0.0316 µM) of over 10 µM, an IC50 (second compound 0.1 µM) of over 10 µM and an IC50 (second compound 0.316 µM) of over 10 µM. For the same molecule, the IC50 (second compound 1 µM) was over 10 µM, the IC50 (second compound 3.16 µM) was over 10 µM and the IC50 (second compound 10 µM) was over 10 µM. It also gave a viability, T/C [1] of 114%, a viability, T/C [2] of 102% and a viability, T/C [3] of 123%. The viability, T/C [4] was 96.2%, the viability, T/C [5] was 91.4% and the viability, T/C [6] was 65.3%. The viability, T/C [7] was 91.5%, the viability, T/C [8] was 123% and the viability, T/C [9] was 87%. For the same molecule, the viability, T/C [10] was 98.7%, the viability, T/C [11] was 72% and the viability, T/C [12] was 94.3%. It also gave a viability, T/C [13] of 112%, a viability, T/C [14] of 102% and a viability, T/C [15] of 84.5%. The viability, T/C [16] was 89.2%, the viability, T/C [17] was 76.1% and the viability, T/C [18] was 61.1%. It also gave a viability, T/C [19] of 100%, a viability, T/C [20] of 93.4% and a viability, T/C [21] of 106%. It also gave a viability, T/C [22] of 79.5%, a viability, T/C [23] of 89.8% and a viability, T/C [24] of 65.7%. For the same molecule, the viability, T/C [25] was 89.4%, the viability, T/C [26] was 118% and the viability, T/C [27] was 101%. It also gave a viability, T/C [28] of 94.3%, a viability, T/C [29] of 77.5% and a viability, T/C [30] of 63.8%. For the same molecule, the viability, T/C [31] was 101%, the viability, T/C [32] was 93.5% and the viability, T/C [33] was 107%. The viability, T/C [34] was 69.5%, the viability, T/C [35] was 76.4% and the viability, T/C [36] was 72.3%.

`CC1COCCN1c1cc(C2(S(C)(=N)=O)CC2)nc(-c2ccnc3[nH]ccc23)n1` (stereo unspecified) + Nc1ccc(C#CCN(C(=O)Cc2ncc(C(F)(F)F)cc2C(F)(F)F)c2ccc(F)cc2)nn1 showed an IC50 (second compound 0.0316 µM) of 6.27 µM, an IC50 (second compound 0.1 µM) of 7.41 µM and an IC50 (second compound 0.316 µM) of 6.97 µM. For the same molecule, the IC50 (second compound 1 µM) was 6.44 µM, the IC50 (second compound 3.16 µM) was 6.95 µM and the IC50 (second compound 10 µM) was over 10 µM. The viability, T/C [1] was 85.9%, the viability, T/C [2] was 110% and the viability, T/C [3] was 107%. It also gave a viability, T/C [4] of 81.7%, a viability, T/C [5] of 60.8% and a viability, T/C [6] of 43.2%. It also gave a viability, T/C [7] of 95.3%, a viability, T/C [8] of 104% and a viability, T/C [9] of 88.8%. It also gave a viability, T/C [10] of 79%, a viability, T/C [11] of 63.4% and a viability, T/C [12] of 45.3%. The viability, T/C [13] was 108%, the viability, T/C [14] was 107% and the viability, T/C [15] was 85.4%. For the same molecule, the viability, T/C [16] was 83.2%, the viability, T/C [17] was 64.2% and the viability, T/C [18] was 43.2%. The viability, T/C [19] was 100%, the viability, T/C [20] was 102% and the viability, T/C [21] was 90.1%. It also gave a viability, T/C [22] of 74.6%, a viability, T/C [23] of 57.6% and a viability, T/C [24] of 45.4%. For the same molecule, the viability, T/C [25] was 96.2%, the viability, T/C [26] was 88.1% and the viability, T/C [27] was 89.3%. For the same molecule, the viability, T/C [28] was 84.7%, the viability, T/C [29] was 59.9% and the viability, T/C [30] was 45.4%. For the same molecule, the viability, T/C [31] was 96.5%, the viability, T/C [32] was 91.3% and the viability, T/C [33] was 93.5%. It also gave a viability, T/C [34] of 71.4%, a viability, T/C [35] of 71.1% and a viability, T/C [36] of 49.9%.
